# Measurements: patent US4818748A, “Renin inhibitors and aminoacid and aminoaldehyde derivatives” (Bayer Aktiengesellschaft, priority 1986, dated 1989)
# What was measured:
# [1] = system: sodium-deficient spontaneously hypertensive rats; test: Mean arterial pressure in anaesthetized sodium-deficient spontaneously hypertensive rats; format: in vivo, rat; conditions: intragastral administration; sodium-deficient SHR (furosemide in drinking water 14 days), anaesthetized with Inactin
# [2] = biological target: T1, endogenous resin from human plasma (Homo sapiens, UniProt P00797); test: In vitro test: inhibition of plasma renin activity (angiotensin I formation, radioimmunoassay); format: biochemical
# T1 construct: endogenous resin from human plasma; from tissue; host or cells: pooled human plasma (EDTA)
# T1 sequence (P00797 67-406): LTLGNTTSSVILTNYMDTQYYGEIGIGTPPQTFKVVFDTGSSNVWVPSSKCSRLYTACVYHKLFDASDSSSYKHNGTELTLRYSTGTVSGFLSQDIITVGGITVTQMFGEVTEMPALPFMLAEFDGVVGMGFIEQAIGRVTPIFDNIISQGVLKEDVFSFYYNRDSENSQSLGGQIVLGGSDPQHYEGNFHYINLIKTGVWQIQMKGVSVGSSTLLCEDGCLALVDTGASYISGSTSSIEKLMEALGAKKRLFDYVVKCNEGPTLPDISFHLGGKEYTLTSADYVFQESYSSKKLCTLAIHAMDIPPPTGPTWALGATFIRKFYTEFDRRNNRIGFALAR
# Protocol: The inhibitory strength of the peptides according to the invention against endogenous resin from human plasma is determined in vitro. Pooled human plasma is obtained, with the addition of ethylenediaminetetraacetic acid (EDTA) as an anticoagulant and is stored at -20° C. The plasma renin activity (PRA) is determined as the rate of formation of angiotensin I from endogenous angiotensinogen and renin after incubation at 37° C. The reaction solution contains 150 μl of plasma, 3 μl of 6.6% strength 8-hydroxyquinoline sulphate solution, 3 μl of 10% strength dimercaprol solution and 144 μl of sodium phosphate buffer (0.2M; 0.1% of EDTA; pH 5.6) with or without the substances according to the invention in various concentrations. The angiotensin I formed per unit time is determined by radioimmunoassay (Sorin Biomedica, Italy). The percentage inhibition of the plasma renin activity is calculated by comparison of the amount of angiotensin I formed here with or without the substances according to the invention.
# [3] = system: spontaneously hypertensive rats; test: In vivo test: systolic blood pressure of conscious spontaneously hypertensive rats, indirect tail-cuff measurement; parameters: species or system rat; conditions: conscious SHR; for systolic blood pressure: oral dose of 100 mg/kg
# Text: From the current state of the art, it was not to be expected that the compounds according to the invention have a hypotensive action when administered orally. […] [See Table 1].
# The blood pressure of the conscious animals is thereby measured by the customary indirect measurement method on the tail, using an inflatable occlusion cuff and an infra-tone pulse recorder [compare H. Breuninger: Methoden zur unblutigen Messung des Blutdrucks an Kleintieren (Methods of bloodless measurement of the blood pressure on small animals), Arzneimittleforschung 6, 222-225 (1956)]. The substance is administered as a suspension in 1% strength Tylose by means of a stomach tube. The systolic blood pressure is measured before and 1, 2, 4 and 6 hours after administration.
smiles,measurement,setting,value
"CC[C@H](C)[C@H](NC(=O)C[C@H](O)[C@H](Cc1ccc([N+](=O)[O-])cc1)NC(=O)[C@H](Cc1c[nH]cn1)NC(=O)[C@H](Cc1ccccc1)NC(=O)OC(C)(C)C)C(=O)OC [Example 12, N-tert.-Butoxycarbonyl-phenylalanyl-L-histidyl-4S-amino-3S-hydroxy-5-(4-nitrophenyl)pentanoyl-L-isoleucine methyl ester]",mean arterial pressure (in words),[1],reduces the mean arterial pressure
same,inhibition of renin activity in vitro (in words),[2],inhibit the renin activity in vitro
same,systolic blood pressure,[3]; 0 hours (before administration),165.0 mm Hg
same,systolic blood pressure,[3]; 1 hour after administration,163.1 mm Hg
same,systolic blood pressure,[3]; 2 hours after administration,161.8 mm Hg
same,systolic blood pressure,[3]; 4 hours after administration,151.8 mm Hg
same,systolic blood pressure,[3]; 6 hours after administration,148.5 mm Hg
same,antihypertensive action (in words),[3]; oral administration of 100 mg/kg,antihypertensive action is observed
